Reference: patent US20260199555A1, “3D PRINTING OF HIGH CELL DENSITY VASCULARIZED TISSUE” (priority 2022, published 2026)

Assays:
HUVEC [1] = assay: Live/Dead staining of printed HUVEC thin slabs; type: cell-based; conditions: HUVEC in GelMA thin slabs
Text: (§1) The bioink used in HUVEC viability experiment (FIGS. 3A, 3D) consists of 5% GelMA, 0.6% LAP, 2 million/mL HUVEC cells, 0% or 35% IDX, and PBS as solvent. The bioink used in HSC viability experiment (FIG. 3B) consists of 2.5% GMHA, 0.5% GelMA, 0.6% LAP, 10 million/mL HSC cells, 0% or 35% IDX, and PBS as solvent. The bioink used in C2C12 viability experiment (FIG. 3C) consists of 1% AlgMA, 0.25% GelMA, 0.6% LAP, 10 million/mL C2C12 cells, 0% or 35% IDX, and PBS as solvent. The bioink used in HUVEC RNAseq experiment (FIG. 3G) consists of 5% GelMA, 0.6% LAP, 10 million/mL HUVEC cells, 0% or 35% IDX, and PBS as solvent.
(§2) In addition, live/dead staining was also used to characterize cell viability. HUVEC in GelMA bioink is printed as thin slabs with either 0% or 35% IDX. […] Furthermore, the cytoskeleton of HUVECs was stained using phalloidin to visualize the cells' morphology.
The cell viability was also evaluated with Live/Dead staining. At designated time points, the slabs were washed with DPBS twice, incubated with 2 μM Calcein AM (C3099, Invitrogen) and 3 μM propidium iodide (P3566, Invitrogen) in the fresh culture media at their regular incubation condition for 30 min. After incubation, the slabs were washed with DPBS twice and imaged with Leica DMI6000B fluorescence microscope. The live cell percentage was counted using particle analysis tool in ImageJ.

[2] = tested on: human umbilical vein endothelial cells (HUVEC); assay: CCK8 metabolic activity of printed thin slabs, HUVEC in GelMA; type: cell-based; conditions: 35% vs 0% IDX; 5% GelMA, 2 million/mL HUVEC; 7 days culture; n=6, p>0.1
Text: (§3) In order to verify IDX's biocompatibility with various biomaterials and cell types, we performed thin slab bioprinting using three commonly used formulas: human umbilical vein endothelial cells (HUVEC) in GelMA, human Schwann cells (HSC) in glycidyl methacrylate hyaluronic acid (GMHA), and C2C12 in alginate methacrylate (AlgMA). FIGS. 7A and 7B are plots of the refractive indices of these common bioinks at various biopolymer and IDX concentrations, respectively. Since the ideal IDX concentration range varies between 20% and 35%, we chose to compare 3D printed tissues in which 0% or 35% IDX was used. As will be apparent to those of skill in the art, other bioinks may be used including, but not limited to, multi-arm PEG (polyethylene glycol), Gel-NB (Gelatin-norbornene), Gel-SH (Gelatin-thiol), and combinations thereof, including HA-NB, HA-SH, etc. Furthermore, the sample cell types described herein are not intended to be limiting but were selected to evaluate the process's impact on viability of mammalian cells. Applications of the inventive approach go well beyond mammalian tissue/organ fabrication. […]
(§4) Cell viability in the printed thin slabs was quantified with Cell Counting Kit-8 (CCK-8, K1018, ApexBio). […] After incubation, 200 μL supernatant was collected from each sample and their OD at 450nm was measured with Tecan Infinite 200 pro.

[3] = Scattering properties of cell-laden bioink (Monte-Carlo with particle swarm optimization); type: physicochemical
Procedure: The scattering effect of the material is usually characterized by scattering coefficient, anisotropy, and reduced scattering coefficient. To further verify that a proper concentration of IDX can effectively reduce the bioinks' scattering effect, bioinks comprising 5% GelMA, 40 million/mL 293T cells, and various IDX concentrations (0%, 20%, 25%, 30%, or 35%) were prepared. An approach that combined Monte-Carlo simulation and particle swarm optimization algorithm was used to determine the bioink's scattering properties at the working wavelength of the bioprinter (405 nm). […] The bioink without refractive index tuning has a scattering coefficient of 11.76 mm^−1, and a reduced scattering coefficient of 0.164 mm^−1. […] By carefully tuning the concentration of contrast agent, scattering can potentially be further reduced.
We used a well-developed 3D Monte-Carlo method combined with a particle swarm optimization algorithm (57) to numerically calculate the scattering properties of the cell-laden bioinks. The total transmittance and total reflectance at 405 nm of the 1 mm thick bioink containing 40 million/mL cells were measured using a UV-Vis-NIR spectroscope (Perkin Elmer, Lambda 1050) with integrating sphere. The angular intensity distribution of the scattered light at 405 nm was measured with a simple optical goniometer type setup. Given arbitrary optical properties, the total transmittance, total reflectance, and angular distribution can be calculated by the Monte-Carlo method. We then used a particle swarm optimization algorithm on MATLAB (MathWorks, Natick MA) to acquire the optical properties which best fit the measured total transmittance, total reflectance, and angular distribution. FIG. 2E provides sample line graphs showing that the simulated angular distribution of the scattered light well fits the measurement values. Next, we used the acquired scattering coefficient and anisotropy to simulate the spatial distribution of light inside the bioink with Monte-Carlo method. This spatial distribution is also the point spread function of scattering.

C2C12 = assay: CCK8 metabolic activity of printed thin slabs, C2C12 in AlgMA; type: cell-based; conditions: 35% vs 0% IDX; 1% AlgMA, 0.25% GelMA, 10 million/mL C2C12; 7 days culture; n=6, p>0.1
Text: as §3, §4

[4] = tested on: human Schwann cells (HSC); assay: CCK8 metabolic activity of printed thin slabs, HSC in GMHA; type: cell-based; conditions: 35% vs 0% IDX; 2.5% GMHA, 0.5% GelMA, 10 million/mL HSC; 7 days culture; n=6, p>0.1
Text: as §3, §4

[5] = Refractive index measurement at 405 nm; type: physicochemical
Procedure: Tests verified that IDX can effectively tune the refractive index by measuring the refractive index of bioinks comprising 5% GelMA and various concentrations of IDX at the working wavelength of the bioprinter (405 nm). For refractive index measurement, mixtures of 5% GelMA with 0%, 20%, 25%, 30%, or 35% IDX, and PBS as solvent were prepared. […] The refractive indices of bioinks comprising 5% GelMA and 0% IDX, as well as the as-purchased IDX solution (OptiPrep™, Sigma-Aldrich) which contains 60% IDX, are also plotted for reference.
The refractive index of bioink can be measured using a simple refractometer with a 405 nm laser. […] The converging beam enters the prism-sample interface at different angles, and total internal reflection (TIR) happens at some of these angles. The diverging beam exits the prism, is collimated by a lens, and collected by a camera. […] In order to accurately relate the TIR boundary position on the captured image to the actual reflecting angle, water and isopropanol, whose refractive index and thus TIR critical angles are known, were used to calibrate this relation.

HUVEC [6] = assay: Phalloidin cytoskeleton staining of printed HUVEC slabs; type: cell-based, human; conditions: 0% vs 35% IDX, day 7
Text: as §2

HUVEC [7] = assay: RNA-seq of HUVECs in 3D-printed GelMA hydrogel (DESeq2, GSEA); type: cell-based, human
Text: as §1
This is especially important for vasculature-on-a-chip studies, where the metabolism and immune-regulation of the endothelium is of interest. […] Here, RNA-sequencing (RNA-seq) was performed to comprehensively investigate the potential changes caused by IDX exposure in the HUVECs in 3D-printed GelMA hydrogel.
Differential expression was first investigated with DESEQ2. […] To further evaluate the biological impact that IDX brought to the bioprinted vasculature, Gene Set Enrichment Analysis (GSEA) using the Molecular Signature Database (MSigDB) was used. […] The heme metabolism is believed to be a result of the oxidative stress induced by the IDX, and the enrichment in the complement system is potentially related to inflammatory responses. These findings correlate well with the clinically observed adverse effects and previous toxicological studies of IDX.
HUVECs were 3D printed in 250 μm slabs using GelMA bioink with 0% or 35% IDX. After 7 days of culture, the RNAs from the 3D printed slabs are extracted with TRIzol reagent (15596018, Ambion) followed by purification using spin column method with Direct-zol RNA Microprep (R2060, Zymo Research). The RNA quality evaluation and sequencing was performed by Novogen Inc. The sequencing data was analyzed with FastQC, trimmed with Trimmomatic, aligned with HISAT2, annotated with StringTie. Differential gene expression was analyzed with DESeq2. Gene set enrichment analysis was performed with GSEA_4.2.3 (Broad Institute). Network analysis was performed with Cytoscape 3.9.1 using the EnrichmentMap application.

[8] = Brix refractometer measurement of 5% GelMA bioink with contrast agents; type: physicochemical; conditions: 5% GelMA bioink, 0, 20, 30, 40, 50% w/v contrast agent
Procedure: FIGS. 14A and 14B plot the results of measurement using a Brix refractometer of 5% GelMA bioink with various concentrations (0, 20, 30, 40, 50% w/v) of the contrast agents ioversol and iohexol, respectively. For comparison, a 100% (w/v) sample of each contrast agent was also measured. Since this method measures the number of dissolved solids in a liquid based on its specific gravity, the units are in Brix %. FIGS. 14C and 14D show the Brix % data converted to refractive index.

[9] = bioink 5% GelMA, 40 million/mL 293T cells, 30% IDX, 405 nm
[10] = 35% vs 0% IDX, 7 days after bioprinting, |log2FoldChange|>0.5849, p<0.05

Row | SMILES | cell viability (live cell percentage) (HUVEC [1]; 0% or 35% IDX, Day 1, Day 3, Day 7) | difference in cell viability between 0% and 35% IDX (HUVEC [1]; n=4, p>0.1 for all pairs) | effect on cells' metabolic activity (CCK8) compared to controls [2] | reduction of scattering ([3]; 30% IDX vs bioink without refractive index tuning) | reduced scattering coefficient [3, 9] | scattering coefficient [3, 9] | effect on cells' metabolic activity (CCK8) compared to controls (C2C12) | effect on cells' metabolic activity (CCK8) compared to controls [4] | refractive index of the bioink versus IDX concentration ([5]; 5% GelMA, IDX 20% to 35%, 405 nm) | refractive index ([5]; IDX solution) | cell morphology / endothelialization (HUVEC [6]) | genes downregulated (HUVEC [7]; [10]) | genes significantly upregulated (HUVEC [7]; [10]) | principal component analysis clustering of samples (HUVEC [7]; 35% vs 0% IDX, n=3) | curated collection gene sets downregulated (HUVEC [7]; response to IDX exposure) | curated collection gene sets upregulated (HUVEC [7]; response to IDX exposure) | ontology collection gene sets downregulated (HUVEC [7]; response to IDX exposure) | ontology collection gene sets upregulated (HUVEC [7]; response to IDX exposure) | hallmark gene sets significantly enriched (GSEA) (HUVEC [7]; samples printed with IDX bioink, FDR<25%, p<0.05) | tuning of bioink refractive index [8]
1 | CC(=O)N(CC(O)CN(C(C)=O)c1c(I)c(C(=O)NCC(O)CO)c(I)c(C(=O)NCC(O)CO)c1I)c1c(I)c(C(=O)NCC(O)CO)c(I)c(C(=O)NCC(O)CO)c1I (centres unmarked) [IDX, iodixanol] | greater than 90% | No statistically significant difference | no statistically significant effect | approximately 10 fold | 0.014 mm^−1 | 1.377 mm^−1 | no statistically significant effect | no statistically significant effect | linearly increases | greater than 1.4 | no qualitative differences observed | 569 genes | 587 genes | did not cluster into two groups | 11 gene sets | 3 gene sets | 1 gene set | 18 gene sets | xenobiotic metabolism, heme metabolism, and complement gene sets | 
2 | O=C(NCC(O)CO)c1c(I)c(C(=O)NCC(O)CO)c(I)c(N(CCO)C(=O)CO)c1I (centres unmarked) [ioversol] |  |  |  |  |  |  |  |  |  |  |  |  |  |  |  |  |  |  |  | can effectively tune its refractive index
